pEC50: −log10 of the molar value.
Columns and labels:
prostanoid EP2 receptor [1] = experiment: Transient expression and activation of the EP2 receptor in the HEK293-pCRE5/SEAP transfectoma (SEAP reporter); type: cell-based; settings: transiently transfected EP2 receptor, PGE2 challenge for 6 hours, SEAP readout; read-out: estimated EC50
Protocol: Twenty four hours after transfection with a plasmid containing the prostanoid EP2 receptor (closed symbol) or the empty vector (open symbol), the HEK293-pCRE5/SEAP transfectoma was challenged with PGE2 for 6 hours (FIG. 4). The estimated EC50 was below 1 nM of PGE2.

prostanoid EP2 receptor [2] = target: T1, prostanoid EP2 receptor (Homo sapiens, UniProt P43116); experiment: HEK293-pCRE5/SEAP transfectoma stably transfected with EP2 receptor, response to PGE2 with or without IBMX; type: cell-based; settings: stable EP2 transfectant, 100 μM IBMX vs absence, 6 h
T1 construct: expressed in transfected cells
Protocol: A HEK293-pCRE5/SEAP transfectoma was stably transfected with the prostanoid EP2 receptor and challenged with PGE2 in the absence (empty circles) or presence (closed circles) of 100 μM IBMX for 6 h and SEAP activity determined (FIG. 5). In this case, EC50 was shifted 10-fold to the left.

[3] = test system: HEK293-pCRE5/SEAP transfectoma; experiment: Forskolin-induced SEAP production in stable HEK293-pCRE5/SEAP transfectoma, 50 h; type: cell-based, human
Protocol: Upper Panel A: Stable HEK293-pCRE5/SEAP transfectoma was stimulated with 20 μM forskolin with or without 100 μM IBMX or 200 μM theophylline for 50 h and SEAP activity was then measured on an aliquot of the supernatant (FIG. 7).

T1 sequence (P43116 whole entry, species assumed): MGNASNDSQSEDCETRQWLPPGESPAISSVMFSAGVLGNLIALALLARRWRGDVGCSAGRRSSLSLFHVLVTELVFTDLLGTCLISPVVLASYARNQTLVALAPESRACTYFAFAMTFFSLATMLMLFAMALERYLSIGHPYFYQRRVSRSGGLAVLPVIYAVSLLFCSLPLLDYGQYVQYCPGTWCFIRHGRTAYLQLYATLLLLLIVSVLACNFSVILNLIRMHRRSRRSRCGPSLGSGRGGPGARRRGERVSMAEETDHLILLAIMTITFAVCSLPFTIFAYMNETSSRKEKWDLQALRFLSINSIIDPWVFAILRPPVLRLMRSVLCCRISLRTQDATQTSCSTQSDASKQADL

SMILES: CCCCC[C@H](O)/C=C/[C@H]1[C@H](O)CC(=O)[C@@H]1C/C=C\CCCC(=O)O [PGE2]
- pEC50 (prostanoid EP2 receptor [1]): > 9.00
- EC50 shift to the left in presence of IBMX (prostanoid EP2 receptor [2]): 10 fold

SMILES: C=C[C@@]1(C)CC(=O)[C@]2(O)[C@@]3(C)[C@@H](O)CCC(C)(C)[C@@H]3[C@H](O)[C@H](OC(C)=O)[C@@]2(C)O1 [forskolin]
- fold-induction of SEAP activity (Panel B, independent experiment) ([3]; 20 μM forskolin with or without 100 μM IBMX): 198 fold
- fold-induction of SEAP activity (Panel A) ([3]; 20 μM forskolin with or without 100 μM IBMX or 200 μM theophylline): 128 fold
